According to patent US9682982B2, “Inhibitors of adapter associated kinase 1, compositions comprising them, and methods of their use” (Lexicon Pharmaceuticals, Inc., priority 2014, dated 2017):

How the values were obtained:
[1] = target: T1, AAK1 (full length human, NCBI accession no. NP_055726.2) (Homo sapiens, UniProt Q2M2I8); test: P81 Filter Plate Assay; type: biochemical; set-up: NP_055726.2; conditions: 0.2 nM AAK1 and 2 μM ATP in 2× mixes, 33P-ATP, one hour at RT; read-out: P81 assay result (inhibition of AAK1 phosphorylation of Mu2)
Procedure: Compounds were serially diluted into a Labcyte LDV plate (Labcyte, cat #LP-0200) using a Mutiprobe (PerkinElmer) and Biomek FX (Beckman Coulter) so that the highest compound concentration was at 96 μM. Compounds were then pinged (75 nL per well) into a Greiner 384-well reaction plate (Greiner, #781076) using an ECHO 550 Liquid Handler (Labcyte). A total of 12 μl reaction buffer (IMAP buffer containing Tween and DTT, from Molecular Devices) was then added to each well of columns 1 and 13 for the negative controls and 12 μl of 2×AAK1 (0.2 nM full-length human protein, NCBI accession no. NP_055726.2) was added to the remaining wells. Enzyme was then pre-incubated with compound for 10 minutes at RT. Reactions were initiated upon Minitrak (PerkinElmer) addition of 12 μl substrate mix containing 2× Mu2 (0.2 μM, full length human protein), 2× cold ATP (2 μM), and 1.3 μCi of hot ^33P-ATP. Reactions proceeded for one hour at RT. Meanwhile, Millipore 384-well P81 filter plates (Millipore, catalog #MZPHNOW10) were placed on a plate washer (Zoom ZW, from Titertek) and pre-wet with 50 μl 1% phosphoric acid. […] The bottom of each filter plate was sealed followed by addition of 20 μl Microscint 40 to each well, sealing the top of the plates with Flashplate cover, and then waiting one hour until reading on the TopCount (PerkinElmer).

[2] = system: formalin-induced nociception in male C57 mice; test: Formalin Assay (paw flinching); type: in vivo, mouse; conditions: male C57 mice, 1, 3, 10 and 30 mpk, given 30 minutes prior to formalin; one-way ANOVA P<0.01 dose effect; FIG. 4 and 5
Procedure: Mice were tested for nociception with Automatic Nociception Analyzers (purchased from the Ozaki lab at University of California, San Diego). A metal band was placed around the left hind paw of each mouse with superglue 30 minutes prior to testing. After the 30-minute acclimation period, 20 μl of 5% formalin was subcutaneously injected in the dorsal surface of the left hind paw. Mice were individually housed in cylindrical chambers for 45 minutes. Fresh 5% formalin solution was prepared by diluting formaldehyde (Formalde-fresh 20%, Fisher Scientific, Fair Lawn, N.J.) with distilled water. Investigatory compounds were administered 30 minutes prior to formalin injection.
A computer software recorded flinches per minute, total flinches for Phase I (acute phase=first 8 minutes), and total flinches for Phase II (tonic phase between 20-40 minutes) through an electromagnetic field. See Yaksh T L, Ozaki G, McCumber D, Rathbun M, Svensson C, Malkmus S, Yaksh M C. An automated flinch detecting system for use in the formalin nociceptive bioassay. J Appl Physiol., 2001; 90:2386-402.

[3] = target: T1, AAK1 (full length human, NCBI accession no. NP_055726.2); test: HEK281 Cell-Based Assay (phospho-mu2 Western blot in HEK293F cells transfected with AAK1 and AP2M1); set-up: HA; expressed in transfected cells; host or cells: HEK293F; conditions: 3 hours incubation, read-out: HEK281 cell-based assay IC50 (inhibition of mu2 phosphorylation)
Procedure: HEK293F cells were cultured in media containing DMEM (Gibco, cat. #11965), 10% FBS (SAFC Biosciences, cat. #12103C), 1×GPS (glutamine, penicillin and streptomycin). On day one, cells were plated on a 10 cm dish so that they are ˜80% confluent at time of transfection. Roughly 12 million cells were in a 10 cm dish at time of transfection. On day two, each dish was transfected with 48 ug DNA and 144 ul Lipofectamine 2000 (Invitrogen, cat. #11668-019). The DNA was comprised of a mixture (per 10 cm dish) containing 3 ug AAK1/HA/pIRES (full length human, NCBI accession no. NP_055726.2), 45 μg Flag/AP2MI/pcDNA (full length human), and 1.5 ml OPTI-MEM. The Lipofectamine 2000 is made up of a mixture (per 10 cm dish) containing 144 μl Lipofectamine 2000 and 1.5 ml OPTI-MEM. Each mixture was transferred to individual 15 ml tubes and incubated at RT for 5 minutes, and then the two mixes were combined and incubated at RT for 20 minutes. Growth media was then aspirated from each 10 cm plate and replaced with 10 ml of DMEM+10% FBS (no GPS). Finally, 3 ml DNA/Lipofectamine mix was added to each 10 cm dish and mix gently followed by incubate of plate overnight at 37° C. and 5% CO2.
On day three, compounds were diluted in 100% DMSO at 1000× final concentration, followed by 3-fold serial dilutions for a total of 5 concentrations tested. Four compounds were tested per 10 cm dish. […]

[4] = system: tactile allodynia after spinal nerve ligation in mice; test: Mouse Chung Assay (spinal nerve ligation, von Frey tactile allodynia); type: in vivo; conditions: P<0.0001 in RM ANOVA, FIG. 6
Description: The compound 3-methyloxetan-3-yl-4-(3-(2-methoxypyridin-3-yl)pyrazolo[1,5-a]pyrimidin-5-yl)piperazine-1-carboxylate was studied in the Chung assay. See Chaplan S R, Bach F W, Pogrel J W, Chung J M, Yaksh T L., Quantitative assessment of tactile allodynia in the rat paw, J Neurosci Methods 1994; 53:55-63; Chung J M, Kim H K, Chung K., Segmental spinal nerve ligation model of neuropathic pain, Methods Mol Med. 2004; 99:35-45.
Wild-type hybrid (C57BL/6J-Tyr^c-Brd×129S5/SvEvBrd) male mice were between 5-7 weeks of age at the time of spinal nerve ligation by the conventional Chung protocol. Spinal nerve ligation was carried out according to the procedure devised by Kim and Chung with modifications. Briefly, mice were anesthetized with isoflurane (2% at the oxygen flow rate of […]). A skin incision (1 cm) was made 1 mm to the left of the dorsal midline, using the level of iliac crests as the mid point of the incision. […] In an initial experiment using hybrid mice, the presumptive locations of spinal nerve L5 and L6 were determined by using the sacroiliac junction as the landmark to locate L6, as previously described in SNL models in rats and mice. […] Mice were individually housed after the procedure and were monitored until complete recovery from anesthesia. […]

AAK1 = AAK1 (Homo sapiens, UniProt Q2M2I8); conditions: cited from earlier work
PC12 cells = conditions: Kuai et al. 2011; cited from earlier work

T1 sequence (Q2M2I8 1-863 isoform Q2M2I8-2): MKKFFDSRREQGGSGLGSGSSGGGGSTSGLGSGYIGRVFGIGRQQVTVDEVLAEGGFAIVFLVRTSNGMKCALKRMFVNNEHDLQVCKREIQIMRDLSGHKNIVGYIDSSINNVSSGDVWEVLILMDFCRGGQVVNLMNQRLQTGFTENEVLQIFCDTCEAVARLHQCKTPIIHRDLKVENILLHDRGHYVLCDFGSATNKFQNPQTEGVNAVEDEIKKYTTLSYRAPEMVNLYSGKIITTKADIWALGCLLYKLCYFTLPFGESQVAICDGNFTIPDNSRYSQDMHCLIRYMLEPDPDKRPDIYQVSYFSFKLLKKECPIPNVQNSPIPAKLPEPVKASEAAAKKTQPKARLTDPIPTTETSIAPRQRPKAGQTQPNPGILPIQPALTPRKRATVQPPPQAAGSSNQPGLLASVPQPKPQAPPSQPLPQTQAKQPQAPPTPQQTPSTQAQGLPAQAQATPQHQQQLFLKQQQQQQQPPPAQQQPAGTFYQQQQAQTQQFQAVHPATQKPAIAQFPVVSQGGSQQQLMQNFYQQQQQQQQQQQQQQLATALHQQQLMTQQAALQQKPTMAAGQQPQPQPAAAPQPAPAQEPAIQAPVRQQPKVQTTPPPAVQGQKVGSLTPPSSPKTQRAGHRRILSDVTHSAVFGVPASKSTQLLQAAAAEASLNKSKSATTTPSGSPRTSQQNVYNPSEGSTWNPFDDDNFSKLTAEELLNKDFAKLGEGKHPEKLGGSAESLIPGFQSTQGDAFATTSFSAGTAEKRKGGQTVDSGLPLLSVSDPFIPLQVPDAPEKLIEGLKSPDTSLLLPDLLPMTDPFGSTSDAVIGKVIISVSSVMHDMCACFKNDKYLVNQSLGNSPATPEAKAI
AAK1, sequence (Q2M2I8 whole entry, species assumed): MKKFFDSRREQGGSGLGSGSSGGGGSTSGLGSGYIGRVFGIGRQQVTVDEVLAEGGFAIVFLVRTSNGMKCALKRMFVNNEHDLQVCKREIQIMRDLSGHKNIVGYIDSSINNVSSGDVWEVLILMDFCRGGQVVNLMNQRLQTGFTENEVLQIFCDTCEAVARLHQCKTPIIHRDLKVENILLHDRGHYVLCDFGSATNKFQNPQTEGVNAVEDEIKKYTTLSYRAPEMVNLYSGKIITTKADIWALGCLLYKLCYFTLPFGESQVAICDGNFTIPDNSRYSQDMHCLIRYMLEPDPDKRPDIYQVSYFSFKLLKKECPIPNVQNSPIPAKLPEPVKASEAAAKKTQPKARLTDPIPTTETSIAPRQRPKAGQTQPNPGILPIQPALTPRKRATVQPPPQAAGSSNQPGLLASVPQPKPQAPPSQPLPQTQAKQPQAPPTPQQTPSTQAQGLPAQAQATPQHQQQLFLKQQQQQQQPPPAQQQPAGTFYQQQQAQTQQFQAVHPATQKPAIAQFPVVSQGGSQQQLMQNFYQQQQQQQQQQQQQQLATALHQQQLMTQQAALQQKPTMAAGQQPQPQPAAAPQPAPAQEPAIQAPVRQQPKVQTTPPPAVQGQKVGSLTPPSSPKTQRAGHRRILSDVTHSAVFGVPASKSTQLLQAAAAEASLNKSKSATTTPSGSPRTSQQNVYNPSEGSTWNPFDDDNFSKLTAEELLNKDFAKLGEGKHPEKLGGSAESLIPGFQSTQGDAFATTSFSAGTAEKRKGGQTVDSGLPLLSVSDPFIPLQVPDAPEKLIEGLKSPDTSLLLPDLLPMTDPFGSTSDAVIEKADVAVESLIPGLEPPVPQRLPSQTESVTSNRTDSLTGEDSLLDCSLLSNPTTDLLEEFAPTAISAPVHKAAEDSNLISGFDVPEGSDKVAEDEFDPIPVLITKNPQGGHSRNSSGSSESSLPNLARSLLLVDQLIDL

Row | IC50 [1] | IC50 [3] | Structure (SMILES) | Formalin phase 2 (tonic phase) flinches versus vehicle [2] | Effect in the Chung assay (von Frey 50% withdraw threshold) [4] | Effect on AAK1 kinase activity (AAK1) | Effect on Neuregulin-1 induced neurite outgrowth (PC12 cells)
1 | 0.9 nM | 4.7 nM | COc1ncccc1-c1cnn2ccc(N3CCN(C(=O)OC4(C)COC4)CC3)nc12 [3-methyloxetan-3-yl-4-(3-(2-methoxypyridin-3-yl)pyrazolo[1,5-a]pyrimidin-5-yl)piperazine-1-carboxylate] | dramatic effect | dose-dependent, significantly significant effect |  | 
2 |  |  | COC(=O)[C@@]1(O)C[C@H]2O[C@]1(C)n1c3ccccc3c3c4c(c5c6ccccc6n2c5c31)C(=O)NC4 [K252a] |  |  | inhibits AAK1 kinase activity | potentiation of Neuregulin-1 induced neurite outgrowth
